According to patent publication US20200405719A1, “CANCER TREATMENT USING COMBINATION OF NEUTROPHIL MODULATOR WITH MODULATOR OF IMMUNE CHECKPOINT” (APOLLOMICS INC., priority 2018, published 2020):
Read-outs that look alike come from different tables or passages of the source.

Assays:
MC38 tumor cells = assay: MC-38 syngeneic colon cancer model, tumor growth and tolerability; format: in vivo
Method: The inventors undertook a combination study of APL-101 and an anti-PD-1 antibody to evaluate the safety and efficacy of the combination. In the MC-38 colon cancer model in syngeneic mice, four groups, five animals per group received either vehicle (water at 20 mg/kg orally, once a day), APL-101 (10 mg/kg orally, once a day), anti-PD-1 (10 mg/kg intraperitoneal injection, twice a week), or APL-101 plus anti-PD-1. In the vehicle group as well as the APL-101 group, animals were dosed daily on Days 1-15 whereas in the single agent anti-PD-1 group, doses were administered on Days 1, 4, 8, 11, and 15. In the combination arm of APL-101 and anti-PD-1, APL-101 was administered on Days 5-15 (4-day delay) while the anti-PD-1 was dosed on Days 1, 4, 8, 11, and 15.
(§1) Animals: female C57BL/6 mice, age 6-8 weeks and of body weight 18-20 g, were provided by Shanghai Lingchang Bio-Technology Co. Ltd.
APL-101 were provided by CBT pharmaceuticals (now Apollomics, Inc.). Anti-PD 1 antibodies were supplied by BioXcell.
Cell culture: The MC38 tumor cells were thawed and maintained in vitro as a monolayer culture in DMEM medium supplemented with 10% heat inactivated fetal bovine serum at 37° C. in an atmosphere of 5% CO2 in air. […] The cells growing in an exponential growth phase were harvested and counted for tumor inoculation. […]
Group assignment: Before grouping and treatment, all animals were weighed and the tumor volumes were measured using a caliper. […]
(§2) Observation and data collection: After tumor cells inoculation, the animals were checked daily for morbidity and mortality. During routine monitoring, the animals were checked for any effects of tumor growth and treatments on normal behavior such as mobility, visual estimation of food and water consumption, body weight gain/loss (body weights were measured twice per week after randomization), eye/hair matting and any other abnormal effect. Death and observed clinical signs were recorded in the comment of datasheet for each animal in detail. […] (Tumor weight was measured at the end of study). […]

H22 tumor cells = assay: H22 syngeneic liver cancer model, tumor growth and tolerability; format: in vivo
Method: The inventors undertook a combination study of APL-101 and an anti-PD-1 antibody to evaluate the safety and efficacy of the combination. In the H22 liver cancer model in syngeneic mice, four groups, ten animals per group received either vehicle (PVP K30 at 20 mg/kg orally, once a day for three weeks), APL-101 (10 mg/kg orally, once a day for three weeks), anti-PD-1 (10 mg/kg intraperitoneal injection, twice a week for three weeks), or APL-101 plus anti-PD-1.
as §1
APL-101 were provided by CBT pharmaceuticals (now Apollomics, Inc.). […]
Cell culture: The H22 tumor cell line were maintained in vitro in RPMI-1640 medium supplemented with 10% fetal bovine serum at 37° C. in an atmosphere of 5% CO2 in air. […] The cells growing in an exponential growth phase were harvested and counted for tumor inoculation. […]
as §2, with “on” for “on normal”, “mobility,” for “mobility, visual estimation of”, “weekly” for “per week”, “abnormalities.” for “abnormal effect. Death and observed clinical signs were recorded in the comment of datasheet for each animal in detail.”, “were” for “was”

RENCA tumor cells = assay: Syngeneic Renca kidney cancer model, tumor growth and tolerability; format: in vivo
Description: The inventors undertook a combination study of APL-101 and an anti-PD-1 antibody to evaluate the safety and efficacy of the combination. […]
as §1
APL-101 were provided by CBT pharmaceuticals (Apollomics, Inc.). Anti-PD 1 antibodies were supplied by BioXcell. PVP K30 were supplied by Fluka Analytical.
Cell culture: The Renca tumor cell line was maintained in vitro in DMEM medium supplemented with 10% fetal bovine serum at 37° C. in an atmosphere of 5% CO2 in air. The tumor cells were routinely subcultured twice weekly. The cells growing in an exponential growth phase were harvested and counted for tumor inoculation. […]
Observation and data collection: After tumor cells inoculation, the animals were checked daily for morbidity and mortality. During routine monitoring, the animals were checked for any effects of tumor growth and treatments on behavior such as mobility, food and water consumption, body weight gain/loss (body weights were measured twice weekly after randomization), eye/hair matting and any other abnormalities. Mortality and observed clinical signs were recorded for individual animals in detail. […] (Tumor weight were measured at the end of study). […]

[1] = 150 mg every 12 hours; 300 mg total daily dose; cited from earlier work
[2] = 3 mg/kg IV on Day 1 and Day 15 of 28-day cycle; relapsed and refractory solid tumor subjects; cited from earlier work

| Compound | Mean percent tumor growth (MC38 tumor cells; MC 38 syngeneic model, APL-101 10 mg/kg qd, anti-PD-1 Ab 10 mg/kg biw) [%] | body weight of treated mice (MC38 tumor cells; MC-38 model, FIG. 1C, alone or in combination) | mean percent tumor growth inhibition (MC38 tumor cells; MC-38 syngeneic mice, APL-101 PO 10 mg/kg QD, anti-PD-1 IP 10 mg/kg BIW, combination x2 weeks, single agents x3 weeks) [%] | Mean percent tumor growth (H22 tumor cells; H22 syngeneic liver cancer model, APL-101 10 mg/kg QD x3 weeks, anti-PD-1 IP 10 mg/kg BIW x3 weeks) [%] | body weight of treated mice (H22 tumor cells; H-22 model, FIG. 2C, alone or in combination) | body weight of treated mice (RENCA tumor cells; RENCA model, FIG. 3C, alone or in combination) | Mean percent tumor growth (RENCA tumor cells; syngeneic Renca kidney cancer model, APL-101 10 mg/kg QD x3 weeks, anti-PD-1 IP 10 mg/kg BIW x3 weeks) [%] | dose deemed safe by Safety Review Committee [1] | dose deemed safe by Safety Review Committee [2] |
| --- | --- | --- | --- | --- | --- | --- | --- | --- | --- |
| Cn1cc2cc(C(F)(F)c3nnc4ccc(-c5cnn(C6CC6)c5)nn34)c(F)cc2n1 [APL-101] | 35.61 | did not affect the body weight | 33.6 | 108.73 | did not affect the body weight | did not affect the body weight | 77 | safe | – |
| APL-501: anti-PD-1 antibody, previously named CBT-501, see WO2016/014688 | – | – | – | – | – | – | – | – | safe |
